Reference: patent US20030229164A1, “Low foam N-alkyltartarimide and N-alkylmalimide wetting agents” (priority 2002, published 2003)

Key:
[1] = Foaming properties of aqueous solutions, procedure based upon ASTM D 1173-53; assay type: physicochemical; settings: for Initial Foam: foam height at completion of addition
Description: The foaming properties of aqueous solutions of N-2-ethylhexyl tartarimide (Ex 1), N-decyl tartarimide (Ex 2), N-2-ethylhexyl malimide (Ex 4) and two representative nonionic surfactants, a commercial nonylphenol 15 mole ethoxylate surfactant and a commercial C8 alkyl glucoside surfactant, were examined using a procedure based upon ASTM D 1173-53.
In this test, a 0.1 wt % aqueous mixtures of the tartramides and malimide were prepared, any undissolved solids were filtered off, and the filtrate was added from an elevated glass pipette to a glass receiver containing the same filtrate. Regarding the commercial materials, a 0.1 wt % solution of the surfactant was added from an elevated glass pipette to a glass receiver containing the same solution. The foam height was measured at the completion of the addition (“Initial Foam Height”) and the time required for the foam to dissipate at the air-liquid interface (“Time to 0 Foam”) was recorded. This test provides a comparison between the foaming characteristics of various surfactants. In general, in coatings, inks, adhesives and agricultural formulations, foam is undesirable because it complicates handling and can lead to coating and print defects, and to inefficient application of agricultural materials.

[2] = Equilibrium surface tension of aqueous solutions, Wilhelmy plate method; assay type: physicochemical; settings: for lowering the equilibrium surface tension of water (in words): aqueous solutions, Table 1 data; for Limiting EST: saturated solutions containing <0.1 wt % in distilled water, filtered, Wilhelmy plate
Description: where R^1 is a C5 to C10 alkyl group. […] The Wilhelmy plate method of measuring surface tension is described in L. Wilhelmy's article in Ann. Phys. 1863, 119, 177, which is incorporated by reference.
Saturated solutions containing <0.1 wt % of the materials of Examples 1-4 in distilled water were prepared. After shaking the solutions for ˜24 hours, the undissolved material was removed via filtration. Equilibrium surface tension data were obtained using the Wilhelmy plate method.
The limiting surface tensions represent the lowest surface tensions in water which can be achieved for a given surfactant regardless of the amount of surfactant used and is used to evaluate the effectiveness of a surfactant. Lower surface tensions would allow the elimination of defects upon application of a formulation onto low energy surfaces.

[3] = 0.1 wt % aqueous mixture (filtrate) or solution

Compound | Foam after 5 min [1, 3] | Initial Foam [1, 3] | Time to zero foam ([1]; 0.1 wt % aqueous mixture (filtrate) or solution, values given in min) | lowering the equilibrium surface tension of water (in words) [2] | Limiting EST [2] | Time to zero foam ([1]; 0.1 wt % aqueous mixture (filtrate), values printed in sec)
CCCCCCCCCCN1C(=O)C(O)C(O)C1=O (racemic) [Example 2, N-Decyl DL-tartarimide] | 0 cm | 3.2 cm | 3.8 min | particularly effective | 32.0 dyne/cm | 
CCCCCCN1C(=O)C(O)C(O)C1=O (racemic) [Example 3, N-hexyl DL-tartarimide] |  |  |  |  | 51.8 dyne/cm | 
CCCCC(CC)CN1C(=O)C(O)C(O)C1=O (centres unmarked) [Example 1, N-2-Ethylhexyl tartarimide] | 0 cm | 0 cm |  | particularly effective | 34.2 dyne/cm | 0 min
